Experimental data reported in patent US11420970B1 (NOVARTIS AG, priority 2019, dated 2022).
Where two headings read alike, the source gives them in different places.

Key:
NSD2 [1-1365] = NSD2 [1-1365] (Homo sapiens (Human), UniProt O96028); test: LC-MS/MS-based NSD2 enzymatic assay (SAH production); format: biochemical; conditions: read-out: NSD2 IC50
In short: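 SAH formed was measured by LC-MS/MS using d4-SAH as internal standard and an SAH calibration curve. Compounds were preincubated 20 min with NSD2 [1-1365] and SAM; mouse-liver nucleosome then started a 90 min room-temperature reaction (8 nM enzyme, 1 μM SAM, 400 nM nucleosome final, pH 8.0), stopped with TFA.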

[1] = system: cellular H3K36me2 level in multiple myeloma cell line KMS11 (t(4;14)+); test: H3K36me2 cellular FRET assay in KMS11-Par line; format: cell-based; conditions: FRET, read-out: H3K36me2 FRET in KMS11-Par
Procedure: H3K36Me2 Cellular FRET Assay in KMS11-Par Line
Fluorescence Resonance Energy Transfer (FRET) assay was used to test the ability of candidate compound to reduce cellular H3K36me2 level in multiple myeloma cell line KMS11 (t(4;14)+) (Horizon Discovery Ltd.).
Cells were treated with tested compounds at the desired concentration for 48 hours. […] Histone extract was incubated with Eu labeled anti-H3K36me2 antibody (abcam #ab ab9049) and d2 labeled anti-H3 antibody (abcam #ab1791) for 1 hour at room temperature. A Eu labeled anti-H3 antibody (CISBIO #64CUS000) was used for loading control. The abundancy of H3K36me2 or total H3 was measured by fluorescence signal on Perkin Elmer Envison machine.

[2] = NSD2 biochemical activity, class symbols
[3] = KMS11-Par line, cellular H3K36me2 level
[4] = Homo sapiens, KMS-11, KMS11-Par line, cellular H3K36me2 level

Chain of NSD2 [1-1365] (O96028 whole entry): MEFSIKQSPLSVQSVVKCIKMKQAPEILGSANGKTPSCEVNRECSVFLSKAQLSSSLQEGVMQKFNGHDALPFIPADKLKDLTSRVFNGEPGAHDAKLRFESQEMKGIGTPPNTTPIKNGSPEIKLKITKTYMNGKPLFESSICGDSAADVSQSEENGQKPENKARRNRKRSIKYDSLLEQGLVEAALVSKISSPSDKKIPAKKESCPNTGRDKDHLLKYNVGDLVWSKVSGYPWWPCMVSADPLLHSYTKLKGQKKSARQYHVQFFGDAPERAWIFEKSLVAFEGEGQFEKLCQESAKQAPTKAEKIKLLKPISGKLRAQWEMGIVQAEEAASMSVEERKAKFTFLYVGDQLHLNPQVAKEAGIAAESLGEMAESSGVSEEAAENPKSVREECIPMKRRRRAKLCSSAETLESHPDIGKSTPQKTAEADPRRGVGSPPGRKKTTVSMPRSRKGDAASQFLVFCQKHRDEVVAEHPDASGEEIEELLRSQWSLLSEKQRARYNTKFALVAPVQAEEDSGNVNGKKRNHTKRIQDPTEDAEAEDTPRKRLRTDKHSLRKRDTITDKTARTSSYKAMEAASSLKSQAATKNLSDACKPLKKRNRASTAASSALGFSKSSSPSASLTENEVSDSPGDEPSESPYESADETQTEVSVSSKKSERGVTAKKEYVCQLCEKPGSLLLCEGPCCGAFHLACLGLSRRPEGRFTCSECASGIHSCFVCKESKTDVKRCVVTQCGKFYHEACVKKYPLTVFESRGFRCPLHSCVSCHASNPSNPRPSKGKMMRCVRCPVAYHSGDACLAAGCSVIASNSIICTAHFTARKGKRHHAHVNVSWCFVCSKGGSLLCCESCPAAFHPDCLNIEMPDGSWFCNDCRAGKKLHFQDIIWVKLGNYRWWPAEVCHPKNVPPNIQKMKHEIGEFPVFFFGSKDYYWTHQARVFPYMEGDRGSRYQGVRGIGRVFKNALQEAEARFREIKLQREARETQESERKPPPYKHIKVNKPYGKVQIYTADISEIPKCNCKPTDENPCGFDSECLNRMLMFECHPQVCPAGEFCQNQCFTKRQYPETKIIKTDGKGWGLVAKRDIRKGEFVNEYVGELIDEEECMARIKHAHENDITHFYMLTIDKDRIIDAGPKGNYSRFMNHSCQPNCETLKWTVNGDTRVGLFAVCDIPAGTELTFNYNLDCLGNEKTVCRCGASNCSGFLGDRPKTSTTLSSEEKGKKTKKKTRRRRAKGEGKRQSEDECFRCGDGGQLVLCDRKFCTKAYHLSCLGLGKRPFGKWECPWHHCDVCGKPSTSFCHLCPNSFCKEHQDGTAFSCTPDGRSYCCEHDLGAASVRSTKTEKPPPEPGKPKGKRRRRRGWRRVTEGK

| SMILES | IC50 (NSD2 [1-1365]; [2]) [µM] | IC50 [1, 3] [µM] | IC50 [1, 4] [µM] | IC50 (NSD2 [1-1365]) [µM] | IC50 ([1]; Homo sapiens, KMS-11, KMS11-Par line) [µM] |
| --- | --- | --- | --- | --- | --- |
| COC[C@@]1(N)CCCN(c2cnc(-c3ccc(OC)c(F)c3)cc2Cn2cnc3c(N)ncnc32)C1 [Example 38, (R)-9-((5-(3-amino-3-(methoxymethyl)piperidin-1-yl)-2-(3-fluoro-4-methoxyphenyl)pyridin-4-yl)methyl)-9H-purin-6-amine] | 0.01 to 1 | 0.721 |  |  |  |
| CNC(=O)CC1(N)CCCN(c2cnc(-c3ccc(F)c(F)c3)cc2Cn2cnc3c(N)ncc(Cl)c32)C1 (centres unmarked) [Example 67, 2-(3-amino-1-(4-((4-amino-7-chloro-1H-imidazo[4,5-c]pyridin-1-yl)methyl)-6-(3,4-difluorophenyl)pyridin-3-yl)piperidin-3-yl)-N-methylacetamide] | 0.01 to 1 |  | 4.25 |  |  |
| Nc1ncnc2c1ncn2Cc1cc(-c2cccc(F)c2)ncc1N1CCC[C@](N)(CC(=O)O)C1 [Example 58, (S)-2-(3-amino-1-(4-((6-amino-9H-purin-9-yl)methyl)-6-(3-fluorophenyl)pyridin-3-yl)piperidin-3-yl)acetic acid] | 0.001 to 0.01 |  | 2.64 |  |  |
| COc1ccc(-c2cc(Cn3cnc4c(N)nccc43)c(N3CCC[C@@H](N)C3)cn2)cc1F [Example 21, (R)-1-((5-(3-aminopiperidin-1-yl)-2-(3-fluoro-4-methoxyphenyl)pyridin-4-yl)methyl)-1H-imidazo[4,5-c]pyridin-4-amine] | 0.01 to 1 |  | 20.8 |  |  |
| COC[C@@]1(N)CCCN(c2cnc(-c3ccc(F)c(F)c3)cc2Cn2cnc3c(N)ncnc32)C1 [Example 23, (R)-9-((5-(3-amino-3-(methoxymethyl)piperidin-1-yl)-2-(3,4-difluorophenyl)pyridin-4-yl)methyl)-9H-purin-6-amine] | 0.001 to 0.01 |  | 0.16 |  |  |
| COC[C@@]1(N)CCCN(c2cnc(-c3cccc(F)c3)cc2Cn2cnc3c(N)ncnc32)C1 [Example 24, (R)-9-((5-(3-amino-3-(methoxymethyl)piperidin-1-yl)-2-(3-fluorophenyl)pyridin-4-yl)methyl)-9H-purin-6-amine] | 0.001 to 0.01 |  | 0.451 |  |  |
| COc1ccc(-c2cc(Cn3cnc4c(N)ncnc43)c(N3CC[C@@H](F)[C@@H](N)C3)cn2)c(F)c1 [Example 10, 9-((5-((3S,4R)-3-amino-4-fluoropiperidin-1-yl)-2-(2-fluoro-4-methoxyphenyl)pyridin-4-yl)methyl)-9H-purin-6-amine] | 0.01 to 1 |  | 7.63 |  |  |
| COc1ccc(-c2cc(Cn3cnc4c(N)ncnc43)c(N3CCC(OC)C(N)C3)cn2)cc1F (centres unmarked) [Example 15, 9-((5-(3-amino-4-methoxypiperidin-1-yl)-2-(3-fluoro-4-methoxyphenyl)pyridin-4-yl)methyl)-9H-purin-6-amine] | 0.01 to 1 |  | 18.7 |  |  |
| COc1ccc(-c2cc(Cn3cnc4c(N)ncnc43)c(N3CCC[C@](N)(C(=O)OC(C)C)C3)cn2)cc1F [Example 81, isopropyl (R)-3-amino-1-(4-((6-amino-9H-purin-9-yl)methyl)-6-(3-fluoro-4-methoxyphenyl)pyridin-3-yl)piperidine-3-carboxylate] | 0.001 to 0.01 |  | 0.115 |  |  |
| N#Cc1ccc(-c2cc(Cn3cnc4c(N)ncnc43)c(N3CC[C@@H](F)[C@@H](N)C3)cn2)cc1F [Example 13, 4-(5-((3S,4R)-3-amino-4-fluoropiperidin-1-yl)-4-((6-amino-9H-purin-9-yl)methyl)pyridin-2-yl)-2-fluorobenzonitrile] | 0.01 to 1 |  | 20.7 |  |  |
| CNC(=O)CC1(N)CCCN(c2cnc(-c3ccc(F)c(F)c3)cc2Cn2cnc3c(N)nccc32)C1 (centres unmarked) [Example 72, 2-(3-amino-1-(4-((4-amino-1H-imidazo[4,5-c]pyridin-1-yl)methyl)-6-(3,4-difluorophenyl)pyridin-3-yl)piperidin-3-yl)-N-methylacetamide] | 0.01 to 1 |  | 250 |  |  |
| CC(C)OC[C@@]1(N)CCCN(c2cnc(-c3ccc(F)c(F)c3)cc2Cn2cnc3c(N)ncnc32)C1 [Example 34, (R)-9-((5-(3-amino-3-(isopropoxymethyl)piperidin-1-yl)-2-(3,4-difluorophenyl)pyridin-4-yl)methyl)-9H-purin-6-amine] | 0.001 to 0.01 |  | 1.03 |  |  |
| COC(=O)[C@@]1(N)CCCN(c2cnc(-c3cccc(F)c3)cc2Cn2cnc3c(N)ncnc32)C1 [Example 79, methyl (R)-3-amino-1-(4-((6-amino-9H-purin-9-yl)methyl)-6-(3-fluorophenyl)pyridin-3-yl)piperidine-3-carboxylate] | 0.001 to 0.01 |  | 0.473 |  |  |
| Nc1ncnc2c1ncn2Cc1cc(-c2cccc(F)c2)ncc1N1CCC[C@](N)(COC(F)F)C1 [Example 40, (R)-9-((5-(3-amino-3-((difluoromethoxy)methyl)piperidin-1-yl)-2-(3-fluorophenyl)pyridin-4-yl)methyl)-9H-purin-6-amine] | 0.01 to 1 |  | 0.77 |  |  |
| COc1ccc(-c2cc(Cn3cnc4c(N)ncnc43)c(N3CCC[C@](N)(COCC(F)(F)F)C3)cn2)cc1F [Example 39, (R)-9-((5-(3-amino-3-((2,2,2-trifluoroethoxy)methyl)piperidin-1-yl)-2-(3-fluoro-4-methoxyphenyl)pyridin-4-yl)methyl)-9H-purin-6-amine] | 0.01 to 1 |  | 2.56 |  |  |
| Nc1ncnc2c1ncn2Cc1cc(-c2cccc(Cl)c2)ncc1N1CC[C@@H](F)[C@@H](N)C1 [Example 12, 9-((5-((3S,4R)-3-amino-4-fluoropiperidin-1-yl)-2-(3-chlorophenyl)pyridin-4-yl)methyl)-9H-purin-6-amine] | 0.01 to 1 |  | 12.2 |  |  |
| Nc1ncnc2c1ncn2Cc1cc(-c2cccc(F)c2)ncc1N1CCC[C@](N)(COC2CCC2)C1 [Example 35, (R)-9-((5-(3-amino-3-(cyclobutoxymethyl)piperidin-1-yl)-2-(3-fluorophenyl)pyridin-4-yl)methyl)-9H-purin-6-amine] | 0.001 to 0.01 |  | 0.61 |  |  |
| COc1ccc(-c2cc(Cn3cnc4c(N)ncnc43)c(N3CCC[C@](N)(C(=O)OC(C)(C)C)C3)cn2)cc1F [Example 83, tert-butyl (R)-3-amino-1-(4-((6-amino-9H-purin-9-yl)methyl)-6-(3-fluoro-4-methoxyphenyl)pyridin-3-yl)piperidine-3-carboxylate] | 0.01 to 1 |  | 0.956 |  |  |
| CSCC1(N)CCCN(c2cnc(-c3ccc(F)c(F)c3)cc2Cn2cnc3c(N)ncnc32)C1 (centres unmarked) [Example 297, 9-((5-(3-amino-3-((methylthio)methyl)piperidin-1-yl)-2-(3,4-difluorophenyl)pyridin-4-yl)methyl)-9H-purin-6-amine] |  |  |  | 0.01 to 1 | 2.35 |
| COC[C@@]1(N)CCCN(c2cnc(-c3ccc(OC)c(F)c3)cc2Cn2cnc3c(N)ncnc32)C1 [Example 46] | 0.001 to 0.01 | 0.315 |  |  |  |
| COc1ccc(-c2cc(Cn3cnc4c(N)ncnc43)c(N3CCC[C@](N)(C(=O)N(C)C)C3)cn2)cc1F [Example 80, (R)-3-amino-1-(4-((6-amino-9H-purin-9-yl)methyl)-6-(3-fluoro-4-methoxyphenyl)pyridin-3-yl)-N,N-dimethylpiperidine-3-carboxamide] | 0.001 to 0.01 |  | 4.95 |  |  |
| N#Cc1ccc(-c2cc(Cn3cnc4c(N)ncnc43)c(N3CCC[C@@H](N)C3)cn2)cc1Cl [Example 7, (R)-4-(4-((6-amino-9H-purin-9-yl)methyl)-5-(3-aminopiperidin-1-yl)pyridin-2-yl)-2-chlorobenzonitrile] | 0.01 to 1 |  | 15.1 |  |  |
